Experimental data published in patent US20260354380A1, “PYRAZOLO PESTICIDAL COMPOUNDS” (BASF SE, priority 2022, published 2026).

Columns and labels:
Type in all cases: in vivo
Plutella xylostella [1] = experiment: Action on Diamond Back Moth (Plutella xylostella), microtiter plates, insect diet, eggs; conditions: 800 ppm; egg and larval mortality; 5 days
Experimental: Example B8: Action on Diamond Back Moth (Plutella xylostella)
For evaluating control of diamond back moth (Plutella xylostella) the test unit consisted of 96-well-microtiter plates containing an insect diet and 15-25 P. xylostella eggs. The compounds or mixtures were formulated using a solution containing 75% water and 25% DMSO. Different concentrations of formulated compounds or mixtures were sprayed onto the insect diet at 5 μl, using a custom-built micro atomizer, at two replications. For experimental mixtures in these tests identical volumes of both mixing partners at the desired concentrations respectively, were mixed together. After application, microtiter plates were incubated at 28±1 °C, 80±5% RH for 5 days. Egg and larval mortality was then visually assessed.

Heliothis virescens = experiment: Action on Tobacco Budworm (Heliothis virescens); conditions: 800 ppm, egg and larval mortality, 5 days
Experimental: Example B5: Action on Tobacco Budworm (Heliothis virescens)
For evaluating control of tobacco budworm (Heliothis virescens) the test unit consisted of 96-well-microtiter plates containing an insect diet and 15-25 H. virescens eggs.
The compounds were formulated using a solution containing 75% v/v water and 25% v/v DMSO. Different concentrations of formulated compounds were sprayed onto the insect diet at 10 μl, using a custom-built micro atomizer, at two replications.
After application, microtiter plates were incubated at about 28±1 °C and about 80±5% relative humidity for 5 days. Egg and larval mortality were then visually assessed.

Aedes aegypti = experiment: whole plant or invertebrate; conditions: for mortality in comparison with untreated controls: 800 ppm, larvae, 2 days
Experimental: Example B1: Action on Yellow Fever Mosquito (Aedes aegypti)
For evaluating control of yellow fever mosquito (Aedes aegypti) the test unit consisted of 96-well-microtiter plates containing 200 μl of tap water per well and 5-15 freshly hatched A. aegypti larvae.
The active compounds or mixtures were formulated using a solution containing 75% (v/V) water and 25% (v/v) DMSO. Different concentrations of formulated compounds or mixtures were sprayed onto the insect diet at 2.5 μl, using a custom-built micro atomizer, at two replications. For experimental mixtures in these tests identical volumes of both mixing partners at the desired concentrations respectively, were mixed together.
After application, microtiter plates were incubated at 28±1 °C, 80±5% RH for 2 days. Larval mortality was then visually assessed.

Plutella xylostella [2] = experiment: Action on Diamond Back Moth (Plutella xylostella), cabbage leaf dip, 3rd instar larvae; conditions: 300 ppm, 3rd instar larvae, 72 hours after treatment
Experimental: Example B6: Action on Diamond Back Moth (Plutella xylostella)
The active compound is dissolved at the desired concentration in a mixture of 1:1 (v/v) distilled water:acetone. Surfactant (Kinetic® HV) is added at a rate of 0.01% (v/v). The test solution is prepared at the day of use.
Leaves of cabbage were dipped in test solution and air-dried. Treated leaves were placed in petri dishes lined with moist filter paper and inoculated with ten 3rd instar larvae. Mortality was recorded 72 hours after treatment. Feeding damages were also recorded using a scale of 0-100%.
(§1) Compounds disclosed in the document WO2021013561 were prepared according to procedures described therein and their pesticidal activities were determined by procedure analogues to the procedures as described above in examples B6 and B7.

Spodoptera eridania = experiment: Action on Southern Armyworm (Spodoptera eridania), 2nd Instar Larvae; conditions: 300 ppm, 2nd instar larvae, 4 days after treatment
Experimental: Example B7: Action on Southern Armyworm (Spodoptera eridania), 2nd Instar Larvae
The active compounds were formulated by a Tecan liquid handler in 100% cyclohexanone as a 10,000 ppm solution supplied in tubes. The 10,000 ppm solution was serially diluted in 100% cyclohexanone to make interim solutions. These served as stock solutions for which final dilutions were made by the Tecan in 50% acetone: 50% water (v/v) into 10 or 20 ml glass vials. A nonionic surfactant (Kinetic®) was included in the solution at a volume of 0.01% (v/v). The vials were then inserted into an automated electrostatic sprayer equipped with an atomizing nozzle for application to plants/insects.
Lima bean plants (variety Sieva) were grown 2 plants to a pot and selected for treatment at the 1st true leaf stage. Test solutions were sprayed onto the foliage by an automated electrostatic plant sprayer equipped with an atomizing spray nozzle. The plants were dried in the sprayer fume hood and then removed from the sprayer. Each pot was placed into perforated plastic bags with a zip closure. About 10 to 11 armyworm larvae were placed into the bag and the bags zipped closed. Test plants were maintained in a growth room at about 25 °C and about 20-40% relative humidity for 4 days, avoiding direct exposure to fluorescent light (24 hour photoperiod) to prevent trapping of heat inside the bags. Mortality and reduced feeding were assessed 4 days after treatment, compared to untreated control plants.
as §1

Anthonomus grandis = experiment: Action on Boll Weevil (Anthonomus grandis); conditions: 800 ppm, egg and larval mortality, 5 days
Experimental: Example B3: Action on Boll Weevil (Anthonomus grandis)
For evaluating control of boll weevil (Anthonomus grandis) the test unit consisted of 96-well-microtiter plates containing an insect diet and 5-10 A. grandis eggs.
The compounds were formulated using a solution containing 75% (v/v) water and 25% (v/v) DMSO. Different concentrations of formulated compounds were sprayed onto the insect diet at 5 μl, using a custom-built micro atomizer, at two replications.
After application, microtiter plates were incubated at about 25±1 °C and about 75±5% relative humidity for 5 days. Egg and larval mortality were then visually assessed.

## Cc1ccc(C(C)C)c(N2C(=O)CSC2=NC(=O)Nc2ccc(-n3cc(NC(=O)c4ccc(S(C)(=O)=O)c(F)c4)c(C)n3)cc2)c1 [Example C-57]
Plutella xylostella [1]
  mortality in comparison with untreated controls: at least 75%
Heliothis virescens
  mortality in comparison with untreated controls: at least 75%

## Cc1ccc(C(C)C)c(N2C(=O)CSC2=NC(=O)Nc2ccc(-n3cc(NC(=O)c4ccc(S(C)(=O)=O)cc4)c(C)n3)cc2)c1 [Example C-53]
Plutella xylostella [1]
  mortality in comparison with untreated controls: at least 75%

## COc1ccc(C(=O)Nc2cn(-c3ccc(NC(=O)/N=C4\SCC(=O)N4c4cc(C)ccc4C(C)C)cc3)nc2C)cc1 [Example C-32]
Aedes aegypti
  mortality in comparison with untreated controls: at least 50%
Plutella xylostella [2]
  mortality in comparison with untreated controls: at least 75%
Spodoptera eridania
  mortality in comparison with untreated controls: at least 75%
Anthonomus grandis
  mortality in comparison with untreated controls: at least 75%
Heliothis virescens
  mortality in comparison with untreated controls: at least 75%

## Cc1ccc(C(C)C)c(N2C(=O)CS/C2=N\C(=O)Nc2ccc(-n3cc(NC(=O)c4ccc(C(C)(F)F)cc4)c(C)n3)cc2)c1 [Example C-36]
Aedes aegypti
  mortality in comparison with untreated controls: at least 50%
Plutella xylostella [2]
  mortality in comparison with untreated controls: at least 75%
Spodoptera eridania
  mortality in comparison with untreated controls: at least 75%
Anthonomus grandis
  mortality in comparison with untreated controls: at least 75%
Heliothis virescens
  mortality in comparison with untreated controls: at least 75%

## Cc1ccc(C(C)C)c(N2C(=O)CSC2=NC(=O)Nc2ccc(-n3cc(NC(=O)c4ccc(I)cc4)c(C)n3)cc2)c1 [Example C-71]
Aedes aegypti
  mortality in comparison with untreated controls: at least 50%
Plutella xylostella [2]
  mortality in comparison with untreated controls: at least 75%
Spodoptera eridania
  mortality in comparison with untreated controls: at least 75%
Anthonomus grandis
  mortality in comparison with untreated controls: at least 75%
Heliothis virescens
  mortality in comparison with untreated controls: at least 75%

## Cc1ccc(C(C)C)c(N2C(=O)CS/C2=N\C(=O)Nc2ccc(-n3cc(NC(=O)c4ccc(CBr)cc4)c(C)n3)cc2)c1 [Example C-31]
Aedes aegypti
  mortality in comparison with untreated controls: at least 50%
Plutella xylostella [2]
  mortality in comparison with untreated controls: at least 75%
Spodoptera eridania
  mortality in comparison with untreated controls: at least 75%
Anthonomus grandis
  mortality in comparison with untreated controls: at least 75%
Heliothis virescens
  mortality in comparison with untreated controls: at least 75%

## Cc1ccc(C(C)C)c(N2C(=O)CSC2=NC(=O)Nc2ccc(-n3cc(NC(=O)c4ccc(C5(F)CC5)cc4)c(C)n3)cc2)c1 [Example C-88]
Aedes aegypti
  mortality in comparison with untreated controls: at least 50%
Plutella xylostella [2]
  mortality in comparison with untreated controls: at least 75%
Spodoptera eridania
  mortality in comparison with untreated controls: at least 75%
Anthonomus grandis
  mortality in comparison with untreated controls: at least 75%
Heliothis virescens
  mortality in comparison with untreated controls: at least 75%

## Cc1ccc(C(C)C)c(N2C(=O)CSC2=NC(=O)Nc2ccc(-n3cc(NC(=O)c4ccc(S(=O)(=O)C(F)(F)F)cc4)c(C)n3)cc2)c1 [Example C-79]
Aedes aegypti
  mortality in comparison with untreated controls: at least 50%
Plutella xylostella [2]
  mortality in comparison with untreated controls: at least 75%
Spodoptera eridania
  mortality in comparison with untreated controls: at least 75%
Anthonomus grandis
  mortality in comparison with untreated controls: at least 75%
Heliothis virescens
  mortality in comparison with untreated controls: at least 75%

## Cc1csc(C(=O)Nc2cn(-c3ccc(NC(=O)/N=C4\SCC(=O)N4c4cc(C)ccc4C(C)C)cc3)nc2C)c1 [Example C-93]
Aedes aegypti
  mortality in comparison with untreated controls: at least 50%
Plutella xylostella [2]
  mortality in comparison with untreated controls: at least 75%
Spodoptera eridania
  mortality in comparison with untreated controls: at least 75%
Anthonomus grandis
  mortality in comparison with untreated controls: at least 75%
Heliothis virescens
  mortality in comparison with untreated controls: at least 75%

## Cc1ccc(C(C)C)c(N2C(=O)CS/C2=N\C(=O)Nc2ccc(-n3cc(NC(=O)c4ccc(C)s4)c(C)n3)cc2)c1 [Example C-94]
Aedes aegypti
  mortality in comparison with untreated controls: at least 50%
Plutella xylostella [2]
  mortality in comparison with untreated controls: at least 75%
Spodoptera eridania
  mortality in comparison with untreated controls: at least 75%
Anthonomus grandis
  mortality in comparison with untreated controls: at least 75%
Heliothis virescens
  mortality in comparison with untreated controls: at least 75%

## Cc1ccc(C(C)C)c(N2C(=O)CSC2=NC(=O)Nc2ccc(-n3cc(NC(=O)c4csc(Cl)c4)c(C)n3)cc2)c1 [Example C-39]
Aedes aegypti
  mortality in comparison with untreated controls: at least 50%
Plutella xylostella [2]
  mortality in comparison with untreated controls: at least 75%
Spodoptera eridania
  mortality in comparison with untreated controls: at least 75%
Anthonomus grandis
  mortality in comparison with untreated controls: at least 75%
Heliothis virescens
  mortality in comparison with untreated controls: at least 75%

## CNC(=O)c1ccc(C(=O)Nc2cn(-c3ccc(NC(=O)N=C4SCC(=O)N4c4cc(C)ccc4C(C)C)cc3)nc2C)cn1 [Example C-60]
Plutella xylostella [1]
  mortality in comparison with untreated controls: at least 75%

## Cc1ccc(C(C)C)c(N2C(=O)CSC2=NC(=O)Nc2ccc(-n3cc(NC(=O)c4ccc(C(C)(C)C)cc4)c(C)n3)cc2)c1 [Example C-73]
Plutella xylostella [1]
  mortality in comparison with untreated controls: at least 75%

## Cc1ccc(C(C)C)c(N2C(=O)CSC2=NC(=O)Nc2ccc(-n3cc(NC(=O)c4csc(Cl)n4)c(C)n3)cc2)c1 [Example C-43]
Aedes aegypti
  mortality in comparison with untreated controls: at least 50%
Plutella xylostella [2]
  mortality in comparison with untreated controls: at least 75%
Spodoptera eridania
  mortality in comparison with untreated controls: at least 75%
Anthonomus grandis
  mortality in comparison with untreated controls: at least 75%
Heliothis virescens
  mortality in comparison with untreated controls: at least 75%

## Cc1ccc(C(C)C)c(N2C(=O)CS/C2=N\C(=O)Nc2ccc(-n3cc(NC(=O)c4ccc(Cl)c(Cl)c4)c(C)n3)cc2)c1 [Example C-26]
Aedes aegypti
  mortality in comparison with untreated controls: at least 50%
Plutella xylostella [2]
  mortality in comparison with untreated controls: at least 75%
Spodoptera eridania
  mortality in comparison with untreated controls: at least 75%
Anthonomus grandis
  mortality in comparison with untreated controls: at least 75%
Heliothis virescens
  mortality in comparison with untreated controls: at least 75%

## Cc1ccc(C(C)C)c(N2C(=O)CS/C2=N\C(=O)Nc2ccc(-n3nc(C)c(NC(=O)c4ccc(OC(F)(F)F)c(F)c4)c3C)c(F)c2)c1 [Example C-21]
Aedes aegypti
  mortality in comparison with untreated controls: at least 50%
Plutella xylostella [2]
  mortality in comparison with untreated controls: at least 75%
Spodoptera eridania
  mortality in comparison with untreated controls: at least 75%
Anthonomus grandis
  mortality in comparison with untreated controls: at least 75%
Heliothis virescens
  mortality in comparison with untreated controls: at least 75%

## Cc1ccc(C(C)C)c(N2C(=O)CS/C2=N\C(=O)Nc2ccc(-n3nc(C)c(NC(=O)c4ccc(OC(F)(F)F)cc4)c3C3CC3)cc2)c1 [Example C-5, N-[5-cyclopropyl-1-[4-[[(Z)-[3-(2-isopropyl-5-methyl-phenyl)-4-oxo-thiazolidin-2-ylidene]carbamoyl]amino]phenyl]-3-methyl-pyrazol-4-yl]-4-(trifluoromethoxy)benzamide]
Aedes aegypti; Aedes aegypti, 48 h, read-out: mortality in comparison with untreated controls
  mortality at 800 ppm: ≥ 50%
Plutella xylostella [2]; Plutella xylostella, foliar, read-out: mortality in comparison with untreated controls
  mortality at 300 ppm: ≥ 75%
Spodoptera eridania; Spodoptera eridania, 96 h, read-out: mortality in comparison with untreated controls
  mortality at 300 ppm: ≥ 75%
Anthonomus grandis; Anthonomus grandis, 120 h, read-out: mortality in comparison with untreated controls
  mortality at 800 ppm: ≥ 75%
Heliothis virescens; Heliothis virescens, 120 h, read-out: mortality in comparison with untreated controls
  mortality at 800 ppm: ≥ 75%
